From publication PMC4526917 (Journal of Experimental Botany, 2015)
Peptide text beside a SMILES is read from it.

Tests used:
[1] = system: maize pollen tube; set-up: method as in Amien et al., 2010; conditions: ref Amien et al., 2010; cited from earlier work
[2] = system: F. graminearum conidia and mycelia; format: cell-based, Fusarium graminearum; conditions: NBT staining of superoxide; 60 µM peptide (Fig. 6)
[3] = system: U. maydis spores; format: cell-based, Ustilago maydis
[4] = system: U. maydis spores; format: cell-based, Ustilago maydis; remark: listed apart in the source
[5] = system: U. maydis spores; conditions: for inhibition of germination of Ustilago spores: 24 h, 90 μM
[6] = system: F. graminearum conidia and mycelia; format: cell-based, Fusarium graminearum; conditions: 90 µM peptide, after 6h; microscopy
[7] = system: F. graminearum conidia; format: cell-based, Fusarium graminearum; conditions: for fungal germination in Fusarium / conidia that did not germinate at all: 90 µM peptide; for fungal germination in Fusarium: 24 hours in PGM, absorbance at 595 nm, germination above 60% taken as threshold; for conidia that did not germinate at all: microscopy; for concentration giving complete suppression of conidia germination: PGM, 24h
[8] = system: maize pollen tubes; test: Pollen tube burst assay; format: cell-based, Zea mays; conditions: for maize pollen tube burst: mean ±SD
Procedure: The assay was applied as described ([Woriedh et al., 2013]). Briefly, freshly collected pollen was immediately distributed onto Petri dishes containing droplets of 10 µL PGM at different pH values. Pollen tubes started to burst or to grow after about 10min. Pollen tubes were subjected to further studies only if germination rates exceeded 80%. After optimization, PGM at pH 5 was applied to all pollen tube assays. A 10 µL solution of the above peptides or acetonitrile as a negative control was added to each droplet of germinated pollen using a Cell-TramH Air pump (Eppendorf) and a glass micropipette. During this assay, droplets were observed using an Eclipse TE2000 inverted microscope (Nikon) equipped with a 1.4 Megapixel digital AxioCam MRm camera (black and white) and AxioVision digital image processing software (Release 4.8).

Compound | effect on maize pollen tube growth behaviour [1] | ROS production in F. graminearum conidia and mycelia [2] | ROS production in U. maydis spores [3] | effect on U. maydis spores [4] | concentration giving complete suppression of spore germination [5] [µM] | germination of Ustilago spores [5] [%] | spores that did not germinate at all [5] | inhibition of germination of Ustilago spores [5] [%] | effect on developed F. graminearum mycelia (24 hpi) [6] | fungal germination in Fusarium [7] [%] | conidia that did not germinate at all [7] | concentration giving complete suppression of conidia germination [7] [µM] | maize pollen tube burst ([8]; 500nM peptide in PGM pH 5, measured 5min after application, P < 0.001) [%] | time after application until pollen tubes started to burst ([8]; PGM pH 5, in words) | maize pollen tube burst ([8]; peptide concentration not stated at this place (100nM, 250nM and 500nM applied), PGM pH 5, 5min after application) [%]
AFP2: anti-fungal protein AFP2 from radish (Raphanus sativus) (QKLCQRPSGTWSGVCGNNNACKNQCIRLEKARHGSCNYVFPAHKCICYFPC; UniProt P30230 30-80, looked up) | did not affect |  |  |  |  |  |  |  |  |  |  |  |  |  | 
CC[C@H](C)[C@H](NC(=O)CNC(=O)[C@H](CC(=O)O)NC(=O)[C@H](CC(C)C)NC(=O)[C@@H](NC(=O)[C@@H](NC(=O)[C@@H]1CCCN1C(=O)[C@H](CO)NC(=O)[C@@H](NC(=O)[C@H](CC(C)C)NC(=O)[C@H](CS)NC(=O)[C@@H](N)CCCNC(=N)N)[C@@H](C)CC)[C@@H](C)CC)[C@@H](C)O)C(=O)N[C@@H](CC(C)C)C(=O)N[C@@H](CS)C(=O)N[C@@H](Cc1ccc(O)cc1)C(=O)O [ES-d] (H-RCLISPITLDGILCY-OH; N-terminus and C-terminus assumed) |  | strongly produced ROS | ROS production was also detected | burst of swelling spores and excretion of vacuoles and cell components | 120 | 20.6±2.1 | Approximately 80% | 78.7±1.0 | breaking/bursting of cell walls and release of vacuoles | 20.6±2.1 | Approximately 80% | 120 | 82.5±5.2 | within a few seconds | 
CC(C)C[C@H](NC(=O)[C@H](CS)NC(=O)[C@H](CCCNC(=N)N)NC(=O)CNC(=O)CNC(=O)[C@@H](NC(=O)[C@H](Cc1ccc(O)cc1)NC(=O)CNC(=O)[C@H](CCCCN)NC(=O)CNC(=O)[C@H](CCC(=O)O)NC(=O)[C@H](C)NC(=O)[C@H](CCCNC(=N)N)NC(=O)[C@H](CS)NC(=O)CN)[C@@H](C)O)C(=O)O [ES-c] (H-GCRAEGKGYTGGRCL-OH; N-terminus and C-terminus assumed) |  | strongly produced ROS | ROS production was also detected |  | 120 | 19.1±3.8 | Approximately 80% | 80.9±1.0 | breaking/bursting of cell walls and release of vacuoles | 19.1±3.8 | Approximately 80% | 120 |  |  | 29.3±4.2
